Source: US7205296B2, “Substituted 2H-1,3-benzoxazin-4(3H)-ones” (Portola Pharmaceuticals, Inc., priority 2004, dated 2007)

Legend:
[1] = tested on: ADP-induced human platelet aggregation; test: PRP assay: inhibition of ADP-mediated platelet aggregation in vitro; type: cell-based; conditions: IC50 class
Protocol: I. Inhibition of ADP-Mediated Platelet Aggregation in vitro
The effect of testing the compound according to the invention on ADP-induced human platelet aggregation is preferably assessed in 96-well microtiter assay (see generally the procedures in Jantzen, H. M. et al. (1999) Thromb. Hemost. 81:111–117). Human venous blood is collected from healthy, drug-free volunteers into ACD (85 mM sodium citrate, 111 mM glucose, 71.4 mM citric acid) containing PGI2 (1.25 ml ACD containing 1.6 μM PGI2/10 ml blood; PGI2 was from Sigma, St. Louis, Mo.). Platelet-rich plasma (PRP) is prepared by centrifugation at 160×g for 20 minutes at room temperature. Washed platelets are prepared by centrifuging PRP for 10 minutes at 730×g and resuspending the platelet pellet in CGS (13 mM sodium citrate, 30 mM glucose, 120 mM NaCl; 2 ml CGS/10 ml original blood volume) containing 1 U/ml apyrase (grade V, Sigma, St. Louis, Mo.). After incubation at 37° C. for 15 minutes, the platelets are collected by centrifugation at 730×g for 10 minutes and resuspended at a concentration of 3×10^8 platelets/ml in Hepes-Tyrode's buffer (10 mM Hepes, 138 mM NaCl, 5.5 mM glucose, 2.9 mM KCl, 12 mM NaHCO3, pH 7.4) containing 0.1% bovine serum albumin, 1 mM CaCl2 and 1 mM MgCl2. This platelet suspension is kept >45 minutes at 37° C. before use in aggregation assays.
Inhibition of ADP-dependent aggregation is preferably determined in 96-well flat-bottom microtiter plates using a microtiter plate shaker and plate reader similar to the procedure described by Frantantoni et al., Am. J. Clin. Pathol. 94, 613 (1990). All steps are performed at room temperature. The total reaction volume of 0.2 ml/well includes in Hepes-Tyrodes buffer/0.1% BSA: 4.5×10^7 apyrase-washed platelets, 0.5 mg/ml human fibrinogen (American Diagnostica, Inc., Greenwich, Conn.), serial dilutions of test compounds (buffer for control wells) in 0.6% DMSO. After about 5 minutes preincubation at room temperature, ADP is added to a final concentration of 2 μM which induces submaximal aggregation. Buffer is added instead of ADP to one set of control wells (ADP^− control). The OD of the samples is then determined at 490 nm using a microtiter plate reader (Softmax, Molecular Devices, Menlo Park, Calif.) resulting in the 0 minute reading. The plates are then agitated for 5 min on a microtiter plate shaker and the 5 minute reading is obtained in the plate reader. Aggregation is calculated from the decrease of OD at 490 nm at t=5 minutes compared to t=0 minutes and is expressed as % of the decrease in the ADP control samples after correcting for changes in the unaggregated control samples.

[2] = target: T1, platelet ADP receptors (Homo sapiens, UniProt Q9H244); test: ARB assay: inhibition of [3H]2-MeS-ADP binding to platelets; conditions: IC50 class, [3H]2-MeS-ADP binding to whole human platelets
T1 construct: endogenous in cells; host or cells: whole apyrase-washed human platelets (outdated from blood banks, or fresh)
T1 sequence (Q9H244 whole entry): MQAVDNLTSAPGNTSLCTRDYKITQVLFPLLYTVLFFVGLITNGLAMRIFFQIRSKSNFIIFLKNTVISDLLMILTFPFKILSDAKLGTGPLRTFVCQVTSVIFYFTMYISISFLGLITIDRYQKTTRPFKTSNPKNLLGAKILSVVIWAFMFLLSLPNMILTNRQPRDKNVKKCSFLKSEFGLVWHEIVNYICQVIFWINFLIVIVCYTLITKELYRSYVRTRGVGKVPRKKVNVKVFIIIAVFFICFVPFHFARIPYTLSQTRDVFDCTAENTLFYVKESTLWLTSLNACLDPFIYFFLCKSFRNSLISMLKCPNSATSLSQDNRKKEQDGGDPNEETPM
Protocol: II. Inhibition of [^3H]2-MeS-ADP Binding to Platelets
Utilizing the second assay the potency of inhibition of such compounds with respect to [^3H]2-MeS-ADP binding to whole platelets is determined. [^3H]2-MeS-ADP binding experiments are routinely performed with outdated human platelets collected by standard procedures at hospital blood banks. Apyrase-washed outdated platelets are prepared as follows (all steps at room temperature, if not indicated otherwise):
Outdated platelet suspensions are diluted with 1 volume of CGS and platelets pelleted by centrifugation at 1900×g for 45 minutes. Platelet pellets are resuspended at 3-6×10^9 platelets/ml in CGS containing 1 U/ml apyrase (grade V, Sigma, St. Louis, Mo.) and incubated for 15 minutes at 37° C. After centrifugation at 730×g for 20 minutes, pellets are resuspended in Hepes-Tyrode's buffer containing 0.1% BSA (Sigma, St. Louis, Mo.) at a concentration of 6.66×10^8 platelets/ml. Binding experiments are performed after >45 minutes resting of the platelets.
Alternatively, binding experiments are performed with fresh human platelets prepared as described in I. (Inhibition of ADP-Mediated Platelet Aggregation in vitro), except that platelets are resuspended in Hepes-Tyrode's buffer containing 0.1% BSA (Sigma, St. Louis, Mo.) at a concentration of 6.66×10^8 platelets/ml. Very similar results are obtained with fresh and outdated platelets.
A platelet ADP receptor binding assay using the tritiated potent agonist ligand [^3H]2-MeS-ADP (Jantzen, H. M. et al. (1999) Thromb. Hemost. 81:111–117) has been adapted to the 96-well microtiter format. In an assay volume of 0.2 ml Hepes-Tyrode's buffer with 0.1% BSA and 0.6% DMSO, 1×10^8 apyrase-washed platelets are preincubated in 96-well flat bottom microtiter plates for 5 minutes with serial dilutions of test compounds before addition of 1 nM [^3H]2-MeS-ADP ([^3H]2-methylthioadenosine-5′-diphosphate, ammonium salt; specific activity 48–49 Ci/mmole, obtained by custom synthesis from Amersham Life Science, Inc., Arlington Heights, Ill., or NEN Life Science Products, Boston, Mass.). Total binding is determined in the absence of test compounds. Samples for nonspecific binding may contain 10^−5 M unlabelled 2-MeS-ADP (RBI, Natick, Mass.). After incubation for 15 minutes at room temperature, unbound radioligand is separated by rapid filtration and two washes with cold (4–8° C.) Binding Wash Buffer (10 mM Hepes pH 7.4, 138 mM NaCl) using a 96-well cell harvester (Minidisc 96, Skatron Instruments, Sterling, Va.) and 8×12 GF/C glassfiber filtermats (Printed Filtermat A, for 1450 Microbeta, Wallac Inc., Gaithersburg, Md.). The platelet-bound radioactivity on the filtermats is determined in a scintillation counter (Microbeta 1450, Wallac Inc., Gaithersburg, Md.). Specific binding is determined by […] binding, and specific binding in the presence of test compounds is expressed as % of specific binding in the absence of test compounds dilutions.

SMILES	IC50 [1]	IC50 [2]
CNc1cc2c(cc1Cl)C(=O)N(c1ccc(NC(=O)NS(=O)(=O)c3ccc(Cl)s3)cc1)CO2 [Example 51, 1-(5-chlorothiophen-2-ylsulfonyl)-3-(4-(6-chloro-7-(methylamino)-4-oxo-2H-benzo[e][1,3]oxazin-3(4H)-yl)phenyl)urea]	> 30 µM	< 0.05 µM
CNc1cc2c(cc1F)C(=O)N(c1ccc(NC(=O)NS(=O)(=O)c3ccc(Cl)s3)c(C)c1)CO2 [Example 10, 1-(5-chlorothiophen-2-ylsulfonyl)-3-(4-(6-fluoro-7-(methylamino)-4-oxo-2H-benzo [e][1,3]oxazin-3(4H)-yl)-2-methylphenyl)urea]	10 to 30 µM	0.05 to 0.5 µM
CNc1cc2c(cc1F)C(=O)N(c1cnc(NC(=O)NS(=O)(=O)c3ccc(Cl)s3)c(C)c1)CO2 [Example 42, 1-(5-chlorothiophen-2-ylsulfonyl)-3-(5-(6-fluoro-7-(methylamino)-4-oxo-2H-benzo [e][1,3]oxazin-3(4H)-yl)-3-methylpyridin-2-yl)urea]	< 10 µM	< 0.05 µM
CNc1cc2c(cc1F)C(=O)N(c1ccc(NC(=O)NS(=O)(=O)c3ccc(OC)s3)cc1)CO2 [Example 45]	> 30 µM	< 0.05 µM
CNc1cc2c(cc1F)C(=O)N(c1ccc(NC(=O)NS(=O)(=O)c3ccc(Cl)s3)c(OC)c1)CO2 [Example 27, 1-(5-chlorothiophen-2-ylsulfonyl)-3-(4-(6-fluoro-7-(methylamino)-4-oxo-2H-benzo[e][1,3]oxazin-3(4H)-yl)-2-methoxyphenyl)urea]	> 30 µM	< 0.05 µM
CNc1cc2c(cc1F)C(=O)N(c1ccc(C(=O)NS(=O)(=O)c3ccc(Cl)s3)cc1)CO2 [Example 56, N-(5-chlorothiophen-2-ylsulfonyl)-4-(6-fluoro-7-(methylamino) -4-oxo-2H-benzo[e] [1,3]oxazin-3(4H)-yl) benzamide]	< 10 µM	< 0.05 µM
CNc1cc2c(cc1F)C(=O)N(c1cc(C)c(NC(=O)NS(=O)(=O)c3ccc(Cl)s3)c(C)c1)CO2 [Example 26, (5-chlorothiophen-2-ylsulfonyl)-3-(4-(6-fluoro-7-(methylamino)-4-oxo-2H-benzo[e][1,3]oxazin-3(4H)-yl)-2,6-dimethylphenyl)urea]	< 10 µM	< 0.05 µM
CNc1cc2c(cc1F)C(=O)N(c1ccc(NC(=O)NS(=O)(=O)c3ccc(Cl)s3)nc1)CO2 [Example 41, 1-(5-chlorothiophen-2-ylsulfonyl)-3-(5-(6-fluoro-7-(methylamino)-4-oxo-2H-benzo[e][1,3]oxazin-3(4H)-yl)pyridin-2-yl)urea]	< 10 µM	< 0.05 µM
